Reference: patent publication US4659696A, “Pharmaceutical composition and its nasal or vaginal use” (Takeda Chemical Industries, Ltd., priority 1982, dated 1987)

Columns and labels:
Type in all cases: in vivo, rat
plasma glucose level [1] = test: Plasma glucose level after nasal administration of insulin to rats; conditions: before administration=100
Experimental: Male SD strain rats (body weights 250 g, approx.) fasted for 16 hours are used in groups of at least 3 animals. Each animal is anesthetized with pentobarbital and administered nasal medication in accordance with the method described in International Journal of Pharmaceutics 7, 317 (1981). Then, 0.1 ml/kg of insulin solution is directly administered into the nasal cavity with a micropipette via the nostril.
The insulin solution used is a mixed solution of 10 U or 20 U of porcine insulin (about 0.2 mg or […]) and 0 mg to 10 mg [which correspond to 0 to 10%] of α-, β- or γ-cyclodextrin in 0.1 ml of an isotonic buffer solution (pH 7.4).
As control, insulin is intravenously administered and plasma glucose levels are determined in the manner as above.

plasma glucose level [2] = test: Plasma glucose level after vaginal administration of insulin to rats; conditions: for Plasma glucose level (%): just before administration=100; for reduction in the area under the plasma glucose level-time curve within 6 hours after administration: mean±standard error
plasma glucose level [3] = test: Plasma glucose level after rectal insulin suppository in rats; conditions: rectal Witepsol W-35 suppository, insulin 50 IU/kg, before administration=100
Source text: The results, which are shown in Table 11, indicate that the addition of α- or β-cyclodextrin results in an increased absorption of insulin.

plasma glucose level [4] = test: Plasma glucose level after rectal administration of insulin solution to rats; conditions: insulin 50 IU/kg, before administration=100

insulin: porcine insulin
Change (%) in plasma glucose level (plasma glucose level [1]; intranasal, insulin 10 U/Kg, no cyclodextrin, 1 hr.): 93.7%
Change (%) in plasma glucose level (plasma glucose level [1]; intranasal, insulin 10 U/Kg, no cyclodextrin, 2 hr.): 99.3%
Change (%) in plasma glucose level (plasma glucose level [1]; intranasal, insulin 10 U/Kg, no cyclodextrin, 4 hr.): 103.0%
Change (%) in plasma glucose level (plasma glucose level [1]; intranasal, insulin 10 U/Kg, α-cyclodextrin 3%, 1 hr.): 73.5%
Change (%) in plasma glucose level (plasma glucose level [1]; intranasal, insulin 10 U/Kg, α-cyclodextrin 3%, 2 hr.): 59.7%
Change (%) in plasma glucose level (plasma glucose level [1]; intranasal, insulin 10 U/Kg, α-cyclodextrin 3%, 4 hr.): 62.9%
Change (%) in plasma glucose level (plasma glucose level [1]; intranasal, insulin 10 U/Kg, α-cyclodextrin 5%, 1 hr.): 59.4%
Change (%) in plasma glucose level (plasma glucose level [1]; intranasal, insulin 10 U/Kg, α-cyclodextrin 5%, 2 hr.): 46.8%
Change (%) in plasma glucose level (plasma glucose level [1]; intranasal, insulin 10 U/Kg, α-cyclodextrin 5%, 4 hr.): 54.4%
Change (%) in plasma glucose level (plasma glucose level [1]; intranasal, insulin 10 U/Kg, α-cyclodextrin 10%, 1 hr.): 33.8%
Change (%) in plasma glucose level (plasma glucose level [1]; intranasal, insulin 10 U/Kg, α-cyclodextrin 10%, 2 hr.): 24.8%
Change (%) in plasma glucose level (plasma glucose level [1]; intranasal, insulin 10 U/Kg, α-cyclodextrin 10%, 4 hr.): 40.3%
Change (%) in plasma glucose level (plasma glucose level [1]; intranasal, insulin 10 U/Kg, β-cyclodextrin 10% (suspension), 1 hr.): 62.5%
Change (%) in plasma glucose level (plasma glucose level [1]; intranasal, insulin 10 U/Kg, β-cyclodextrin 10% (suspension), 2 hr.): 48.6%
Change (%) in plasma glucose level (plasma glucose level [1]; intranasal, insulin 10 U/Kg, β-cyclodextrin 10% (suspension), 4 hr.): 49.7%
Change (%) in plasma glucose level (plasma glucose level [1]; intranasal, insulin 10 U/Kg, γ-cyclodextrin 10%, 1 hr.): 80.0%
Change (%) in plasma glucose level (plasma glucose level [1]; intranasal, insulin 10 U/Kg, γ-cyclodextrin 10%, 2 hr.): 81.0%
Change (%) in plasma glucose level (plasma glucose level [1]; intranasal, insulin 10 U/Kg, γ-cyclodextrin 10%, 4 hr.): 74.2%
Change (%) in plasma glucose level (plasma glucose level [1]; intranasal, insulin 20 U/Kg, no cyclodextrin, 1 hr.): 92.4%
Change (%) in plasma glucose level (plasma glucose level [1]; intranasal, insulin 20 U/Kg, no cyclodextrin, 2 hr.): 90.6%
Change (%) in plasma glucose level (plasma glucose level [1]; intranasal, insulin 20 U/Kg, no cyclodextrin, 4 hr.): 99.9%
Change (%) in plasma glucose level (plasma glucose level [1]; intranasal, insulin 20 U/Kg, α-cyclodextrin 5%, 1 hr.): 64.3%
Change (%) in plasma glucose level (plasma glucose level [1]; intranasal, insulin 20 U/Kg, α-cyclodextrin 5%, 2 hr.): 38.4%
Change (%) in plasma glucose level (plasma glucose level [1]; intranasal, insulin 20 U/Kg, α-cyclodextrin 5%, 4 hr.): 47.9%
Change (%) in plasma glucose level (plasma glucose level [1]; intravenous, insulin 5 U/Kg, no cyclodextrin, 1 hr.): 29.6%
Change (%) in plasma glucose level (plasma glucose level [1]; intravenous, insulin 5 U/Kg, no cyclodextrin, 2 hr.): 31.6%
Change (%) in plasma glucose level (plasma glucose level [1]; intravenous, insulin 5 U/Kg, no cyclodextrin, 4 hr.): 41.7%
Plasma glucose level (%) (plasma glucose level [2]; intravaginal (5% α-CD), insulin 20 Unit/kg, 0.5 hour): 66.5%
Plasma glucose level (%) (plasma glucose level [2]; intravaginal (5% α-CD), insulin 20 Unit/kg, 1 hour): 52.7%
Plasma glucose level (%) (plasma glucose level [2]; intravaginal (5% α-CD), insulin 20 Unit/kg, 2 hour): 40.0%
Plasma glucose level (%) (plasma glucose level [2]; intravaginal (5% α-CD), insulin 20 Unit/kg, 3 hour): 33.7%
Plasma glucose level (%) (plasma glucose level [2]; intravaginal (5% α-CD), insulin 20 Unit/kg, 4 hour): 31.4%
Plasma glucose level (%) (plasma glucose level [2]; intravaginal (5% α-CD), insulin 20 Unit/kg, 6 hour): 41.5%
Plasma glucose level (%) (plasma glucose level [2]; intravaginal (physiological saline), insulin 20 Unit/kg, no cyclodextrin, 0.5 hour): 80.7%
Plasma glucose level (%) (plasma glucose level [2]; intravaginal (physiological saline), insulin 20 Unit/kg, no cyclodextrin, 1 hour): 75.8%
Plasma glucose level (%) (plasma glucose level [2]; intravaginal (physiological saline), insulin 20 Unit/kg, no cyclodextrin, 2 hour): 77.2%
Plasma glucose level (%) (plasma glucose level [2]; intravaginal (physiological saline), insulin 20 Unit/kg, no cyclodextrin, 3 hour): 74.2%
Plasma glucose level (%) (plasma glucose level [2]; intravaginal (physiological saline), insulin 20 Unit/kg, no cyclodextrin, 4 hour): 66.9%
Plasma glucose level (%) (plasma glucose level [2]; intravaginal (physiological saline), insulin 20 Unit/kg, no cyclodextrin, 6 hour): 67.8%
pharmacological effect versus control vaginal administration group (plasma glucose level [2]; intravaginal, insulin 20 units/kg, 5% α-cyclodextrin): almost doubled
reduction in the area under the plasma glucose level-time curve within 6 hours after administration (plasma glucose level [2]; intravaginal, insulin 20 units/kg, 5% α-cyclodextrin (invention group)): 339.9±11.2 %×hour
reduction in the area under the plasma glucose level-time curve within 6 hours after administration (plasma glucose level [2]; intravaginal, insulin 20 units/kg, no cyclodextrin (control group)): 158.2±29.6 %×hour
Plasma glucose level (%) (plasma glucose level [2]; subcutaneous, insulin 5 Unit/kg, no cyclodextrin, 0.5 hour): 67.0%
Plasma glucose level (%) (plasma glucose level [2]; subcutaneous, insulin 5 Unit/kg, no cyclodextrin, 1 hour): 54.7%
Plasma glucose level (%) (plasma glucose level [2]; subcutaneous, insulin 5 Unit/kg, no cyclodextrin, 2 hour): 42.2%
Plasma glucose level (%) (plasma glucose level [2]; subcutaneous, insulin 5 Unit/kg, no cyclodextrin, 3 hour): 35.1%
Plasma glucose level (%) (plasma glucose level [2]; subcutaneous, insulin 5 Unit/kg, no cyclodextrin, 4 hour): 37.5%
Plasma glucose level (%) (plasma glucose level [2]; subcutaneous, insulin 5 Unit/kg, no cyclodextrin, 6 hour): 74.1%
Change (%) in plasma glucose level (plasma glucose level [3]; 5% (w/w) α-cyclodextrin, 0.5 hr.): 93.1%
Change (%) in plasma glucose level (plasma glucose level [3]; 5% (w/w) α-cyclodextrin, 1 hr.): 61.1%
Change (%) in plasma glucose level (plasma glucose level [3]; 5% (w/w) α-cyclodextrin, 1.5 hr.): 63.5%
Change (%) in plasma glucose level (plasma glucose level [3]; 5% (w/w) α-cyclodextrin, 2 hr.): 86.1%
Change (%) in plasma glucose level (plasma glucose level [3]; 5% (w/w) α-cyclodextrin, 3 hr.): 93.4%
Change (%) in plasma glucose level (plasma glucose level [3]; 5% (w/w) β-cyclodextrin, 0.5 hr.): 87.1%
Change (%) in plasma glucose level (plasma glucose level [3]; 5% (w/w) β-cyclodextrin, 1 hr.): 81.5%
Change (%) in plasma glucose level (plasma glucose level [3]; 5% (w/w) β-cyclodextrin, 1.5 hr.): 80.1%
Change (%) in plasma glucose level (plasma glucose level [3]; 5% (w/w) β-cyclodextrin, 2 hr.): 92.5%
Change (%) in plasma glucose level (plasma glucose level [3]; 5% (w/w) β-cyclodextrin, 3 hr.): 100.4%
Change (%) in plasma glucose level (plasma glucose level [3]; no cyclodextrin, 0.5 hr.): 98.1%
Change (%) in plasma glucose level (plasma glucose level [3]; no cyclodextrin, 1 hr.): 94.1%
Change (%) in plasma glucose level (plasma glucose level [3]; no cyclodextrin, 1.5 hr.): 97.4%
Change (%) in plasma glucose level (plasma glucose level [3]; no cyclodextrin, 2 hr.): 98.1%
Change (%) in plasma glucose level (plasma glucose level [3]; no cyclodextrin, 3 hr.): 102.5%
Change (%) in plasma glucose level (plasma glucose level [4]; 5% (w/v) α-cyclodextrin, 0.5 hr.): 92.9%
Change (%) in plasma glucose level (plasma glucose level [4]; 5% (w/v) α-cyclodextrin, 1 hr.): 39.1%
Change (%) in plasma glucose level (plasma glucose level [4]; 5% (w/v) α-cyclodextrin, 1.5 hr.): 39.6%
Change (%) in plasma glucose level (plasma glucose level [4]; 5% (w/v) α-cyclodextrin, 2 hr.): 69.6%
Change (%) in plasma glucose level (plasma glucose level [4]; 5% (w/v) β-cyclodextrin, 0.5 hr.): 94.3%
Change (%) in plasma glucose level (plasma glucose level [4]; 5% (w/v) β-cyclodextrin, 1 hr.): 70.1%
Change (%) in plasma glucose level (plasma glucose level [4]; 5% (w/v) β-cyclodextrin, 1.5 hr.): 76.3%
Change (%) in plasma glucose level (plasma glucose level [4]; 5% (w/v) β-cyclodextrin, 2 hr.): 90.1%
Change (%) in plasma glucose level (plasma glucose level [4]; 5% (w/v) γ-cyclodextrin, 0.5 hr.): 94.8%
Change (%) in plasma glucose level (plasma glucose level [4]; 5% (w/v) γ-cyclodextrin, 1 hr.): 79.0%
Change (%) in plasma glucose level (plasma glucose level [4]; 5% (w/v) γ-cyclodextrin, 1.5 hr.): 81.3%
Change (%) in plasma glucose level (plasma glucose level [4]; 5% (w/v) γ-cyclodextrin, 2 hr.): 93.0%
Change (%) in plasma glucose level (plasma glucose level [4]; no cyclodextrin, 0.5 hr.): 102.2%
Change (%) in plasma glucose level (plasma glucose level [4]; no cyclodextrin, 1 hr.): 86.0%
Change (%) in plasma glucose level (plasma glucose level [4]; no cyclodextrin, 1.5 hr.): 95.2%
Change (%) in plasma glucose level (plasma glucose level [4]; no cyclodextrin, 2 hr.): 121.9%
